Drawing on patent US12331054B2, “Perk inhibiting imidazolopyrazine compounds” (HiberCell, Inc., priority 2019, dated 2025), this text covers IC50 for 20 compounds.

The target in test [1] is Recombinant human EIF2AK3 (PERK) catalytic domain (amino acids 536-1116) (Homo sapiens (Human), UniProt Q9NZJ5). Nature of the test: PERK In Vitro Activity Assay (isolated), TR-FRET kinase assay. As to conditions: isolated PERK enzyme, 1.5 μM ATP, read-out: Biochemical IC50. The source says:
PERK In Vitro Activity Assay (isolated):
In vitro Inhibition of PERK Enzyme Activity (isolated) Recombinant human EIF2AK2 (PKR) catalytic domain (amino acids 252-551), EIF2AK3 (PERK) catalytic domain (amino acids 536-1116), GFP-eIF2a substrate, and Terbium-labelled phospho-eIF2a antibody is obtained (Invitrogen, Carlsbad, CA).
Express and purify HIS-SUMO-GCN2 catalytic domain (amino acids 584-1019) from E. coli. Perform TR-FRET kinase assays in the absence or presence of inhibitors in a reaction buffer consisting of 50 mM HEPES, pH 7.5, 10 mM MgCb, 1.0 mM EGTA, and 0.01% Brij-35, and 100-200 nM GFP-eIF2a substrate. […] Add test compound, initiate the reaction by addition of enzyme, and incubate at room temperature for 45 minutes. Stop the reaction by addition of EDTA to a final concentration of 10 mM, add Terbium-labelled phospho-eIF2a antibody at a final concentration of 2 nM, and incubate for 90 minutes. Monitor the resulting fluorescence in an EnVison® Multilabel reader (PerkinElmer, Waltham, MA). Determine TR-FRET ratios and the resulting IC50 values using a 4-parameter nonlinear logistic equation as shown: Y=(A+((B−A)/(1+(C/x)AD)))) where, Y=% specific inhibition, A=Bottom of the curve, B=Top of the curve, C=absolute IC50 (concentration causing 50% inhibition), and D=hill slope.
A general note: In TR-FRET formats the signal depends on donor and acceptor labels being close together.

Test [2] deals with eIF2α in HEK293-EGFP-eIF2α cells. Briefly: PERK Cellular Assay (HEK293-EGFP-eIF2α cells, tunicamycin-induced ER stress, TR-FRET). It is filed as cell-based. The conditions noted are these: tunicamycin 2 hours. The method, then: Stable cell lines were created in HEK293 cells using lentiviral particles harboring an expression vector for GFP-eIF2α. Cells were selected using puromycin and enriched using fluorescence activated cell sorting against GFP. HEK293-EGFP-eIF2α cells were plated at 5000 cells/well in 384-well assay plates and incubated overnight at 37° C., 5% CO2. Inhibitor compounds were added to the wells by Echo acoustic dispensing and incubated for 30 minutes at 37° C., 5% CO2 prior to induction of ER stress by addition of tunicamycin to […] for 2 hours. Cells were lysed and TR-FRET was measured in an EnVision plate reader (PerkinElmer). FRET ratio data was normalized to signal from lysates treated with DMSO vehicle control and plotted as percent inhibition against 10-point; 3-fold dilution series of inhibitors. IC50 values were calculated using 4-parameter logistical fitting in XLFit.

Sequence of Recombinant human EIF2AK3 (PERK) catalytic domain (amino acids 536-1116) (Q9NZJ5 536-1116): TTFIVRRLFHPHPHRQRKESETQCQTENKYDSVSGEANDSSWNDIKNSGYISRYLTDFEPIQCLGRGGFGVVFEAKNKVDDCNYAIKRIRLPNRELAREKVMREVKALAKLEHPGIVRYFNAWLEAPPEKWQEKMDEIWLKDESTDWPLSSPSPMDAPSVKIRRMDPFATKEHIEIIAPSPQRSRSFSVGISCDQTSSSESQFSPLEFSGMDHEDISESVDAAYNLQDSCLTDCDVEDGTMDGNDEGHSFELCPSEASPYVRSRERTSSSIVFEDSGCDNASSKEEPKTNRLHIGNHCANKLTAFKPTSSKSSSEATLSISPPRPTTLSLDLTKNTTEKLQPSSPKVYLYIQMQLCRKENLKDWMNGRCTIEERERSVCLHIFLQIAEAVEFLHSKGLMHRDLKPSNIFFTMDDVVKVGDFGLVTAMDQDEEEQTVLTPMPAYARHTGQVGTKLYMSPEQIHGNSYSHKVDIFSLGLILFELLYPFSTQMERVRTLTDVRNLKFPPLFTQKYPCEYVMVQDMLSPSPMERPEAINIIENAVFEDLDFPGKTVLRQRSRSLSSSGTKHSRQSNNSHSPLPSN

As to `[2H]C([2H])([2H])c1nc(-c2ccc(NC(=O)C(O)c3cccc(Cl)c3)cc2C)c2c(N)ncc(Cl)n12` (centres unmarked) [Example 42, N-[4-[8-amino-5-chloro-3-(trideuteriomethyl)imidazo[1,5-a]pyrazin-1-yl]-3-methyl-phenyl]-2-(3-chlorophenyl)-2-hydroxy-acetamide], the IC50 in test [1] and in test [2] was 1 to 25 nM in each case.
For `Cc1cc(NC(=O)C(O)c2cccc(Cl)c2)ccc1-c1nc(C)n2c(C)cnc(N)c12` (centres unmarked) [Example 39, N-(4-(8-amino-3,5-dimethylimidazo [1,5-a]pyrazin-1-yl)-3-methyl-phenyl)-2-(3-chlorophenyl)-2-hydroxyacetamide], the IC50 (usually the midpoint of a concentration-inhibition curve) in test [1] was in the range of 1 to 25 nM; in test [2], 101 to 250 nM.
Take `[2H]C([2H])([2H])c1nc(-c2ccc(NC(=O)C(O)c3cc(F)cc(F)c3)cc2F)c2c(N)ncc(Cl)n12` (centres unmarked) [Example 108, N-[4-[8-amino-5-chloro-3-(trideuteriomethyl)imidazo[1,5-a]pyrazin-1-yl]-3-fluoro-phenyl]-2-(3,5-difluoro-phenyl)-2-hydroxy-acetamide]: the IC50 in test [1] and in test [2] (2 h) was 1 to 25 nM in each case.
In the case of `[2H]C([2H])([2H])c1nc(-c2ccc(NC(=O)C(O)c3cc(F)cc(F)c3)c(F)c2F)c2c(N)ncc(C(F)(F)F)n12` (centres unmarked) [Example 159, N-[4-[8-amino-3-(trideuteriomethyl)-5-(trifluoromethyl)imidazo[1,5-a]pyrazin-1-yl]-2,3-difluoro-phenyl]-2-(3,5-difluorophenyl)-2-hydroxy-acetamide], the IC50 in test [1] was 51 to 100 nM; in test [2], 251 to 500 nM.
On the same counts, the results for `Cc1cc(NC(=O)C(O)c2cccc(F)c2)ccc1-c1nc(C)n2c(C)cnc(N)c12` (centres unmarked) [Example 9, N-(4-(8-amino-3,5-dimethylimidazo[1,5-a]pyrazin-1-yl)-3-methylphenyl)-2-(3-fluorophenyl)-2-hydroxyacetamide] are 51 to 100 nM and 251 to 500 nM.
On the same counts, the results for `Cc1cnc(N)c2c(-c3ccc(NC(=O)C(O)c4cccc(F)c4)cc3F)nc(C)n12` (centres unmarked) [Example 70, N-(4-(8-amino-3,5-dimethylimidazo [1,5-a]pyrazin-1-yl)-3-fluorophenyl)-2-(3-fluorophenyl)-2-hydroxy-acetamide] are 1 to 25 nM and 1 to 25 nM.
As for `[2H]C([2H])([2H])c1nc(-c2ccc(NC(=O)C(O)c3cccc(F)c3)nc2C)c2c(N)ncc(C)n12` (centres unmarked) [Example 172, N-[5-[8-amino-5-methyl-3-(trideuteriomethyl)imidazo[1,5-a]pyrazin-1-yl]-6-methyl-2-pyridyl]-2-(3-fluorophenyl)-2-hydroxy-acetamide], in test [2], the concentration for half-maximal inhibition (IC50) was in the range of 501 to 1000 nM.
`[2H]C([2H])([2H])c1nc(-c2ccc(NC(=O)C(O)c3cccc(F)c3)c(F)c2)c2c(N)nc(C)cn12` (centres unmarked) [Example 121, N-[4-[8-amino-6-methyl-3-(trideuteriomethyl)imidazo[1,5-a]pyrazin-1-yl]-2-fluorophenyl]-2-(3-fluorophenyl)-2-hydroxy-acetamide] returned a half-inhibitory concentration (IC50) in test [2] of 51 to 100 nM.
Regarding `[2H]C([2H])([2H])c1nc(-c2ccc(NC(=O)C(O)c3cccc(Cl)c3)cc2F)c2c(N)ncc(Cl)n12` (centres unmarked) [Example 86, N-[4-[8-amino-5-chloro-3-(trideuteriomethyl)imidazo[1,5-a]pyrazin-1-yl]-3-fluoro-phenyl]-2-(3-chlorophenyl)-2-hydroxy-acetamide], the half-inhibitory concentration (IC50) in test [1] lay in the range of 1 to 25 nM.
In turn, `[2H]C([2H])([2H])c1nc(-c2ccc(NC(=O)C(O)c3cc(F)cc(F)c3)cc2C)c2c(N)ncc(Cl)n12` (centres unmarked) [Example 49, N-[4-[8-amino-5-chloro-3-(trideuteriomethyl)imidazo[1,5-a]pyrazin-1-yl]-3-methyl-phenyl]-2-(3,5-difluoro-phenyl)-2-hydroxy-acetamide] registered an IC50 in test [2] of 1 to 25 nM.
`[2H]C([2H])([2H])c1nc(-c2ccc(NC(=O)C(O)c3cccc(F)c3)cc2C)c2c(N)ncc(C)n12` (centres unmarked) [Example 11, N-(4-(8-amino-5-methyl-3-(trideuteriomethyl)imidazo[1,5-a]pyrazin-1-yl)-3-methylphenyl)-2-(3-fluorophenyl)-2-hydroxyacetamide]: the IC50 in test [2] fell in the range of 1 to 25 nM.
In test [2], `Cc1cn2c(C)nc(-c3ccc(NC(=O)C(O)c4cccc(F)c4)c(F)c3)c2c(N)n1` (centres unmarked) [Example 119, N-(4-(8-amino-3,6-dimethyl-imidazo[1,5-a]pyrazin-1-yl)-2-fluorophenyl)-2-(3-fluorophenyl)-2-hydroxy-acetamide] gave an IC50 of 26 to 50 nM.
On to `[2H]C([2H])([2H])c1nc(-c2ccc(NC(=O)C(O)c3cccc(Cl)c3)cc2C)c2c(N)ncc(C(F)(F)F)n12` (centres unmarked) [Example 40, N-[4-[8-amino-3-(trideuteriomethyl)-5-(trifluoromethyl)imidazo[1,5-a]pyrazin-1-yl]-3-methyl-phenyl]-2-(3-chlorophenyl)-2-hydroxy-acetamide], for which the 50% inhibitory concentration (IC50) in test [1] was in the range of 1 to 25 nM.
In test [2], `[2H]C([2H])([2H])c1nc(-c2ccc(NC(=O)C(O)c3cccc(F)c3)c(F)c2)c2c(N)nc(C)cn12` (centres unmarked) [Example 120, N-[4-[8-amino-6-methyl-3-(trideuteriomethyl)imidazo[1,5-a]pyrazin-1-yl]-2-fluorophenyl]-2-(3-fluorophenyl)-2-hydroxy-acetamide] gave a half-inhibitory concentration (IC50) of 1000 to 2000 nM.
`[2H]C([2H])([2H])c1nc(-c2ccc(NC(=O)C(O)c3cc(F)cc(F)c3)cc2F)c2c(N)ncc(Cl)n12` (centres unmarked) [Example 109, N-[4-[8-amino-5-chloro-3-(trideuteriomethyl)imidazo[1,5-a]pyrazin-1-yl]-3-fluoro-phenyl]-2-(3,5-difluoro-phenyl)-2-hydroxy-acetamide] yielded an IC50 in test [2] of 1 to 25 nM.
Take `Cc1cn2c(C)nc(-c3ccc(NC(=O)C(O)c4cccc(F)c4)c(F)c3)c2c(N)n1` (centres unmarked) [Example 118, N-(4-(8-amino-3,6-dimethyl-imidazo[1,5-a]pyrazin-1-yl)-2-fluorophenyl)-2-(3-fluorophenyl)-2-hydroxy-acetamide]: in test [2], the IC50 was in the range of 4000 to 5000 nM.
`Cc1cn2c(C3CC(C)(O)C3)nc(-c3ccc(NC(=O)C(O)c4cccc(F)c4)cc3C)c2c(N)n1` (centres unmarked) [Example 25, N-(4-(8-amino-3-(3-hydroxy-3-methylcyclobutyl)-6-methylimidazo [1,5-a]pyrazin-1-yl)-3-methyl-phenyl)-2-(3-fluorophenyl)-2-hydroxyacetamide] showed a half-maximal inhibitory concentration (IC50) in test [2] of 1000 to 2000 nM.
The compound `Cc1cn2c(C3CC(C)(O)C3)nc(-c3ccc(NC(=O)C(O)c4cccc(F)c4)cc3C)c2c(N)n1` (centres unmarked) [Example 24, N-(4-(8-amino-3-(3-hydroxy-3-methylcyclobutyl)-6-methylimidazo [1,5-a]pyrazin-1-yl)-3-methyl-phenyl)-2-(3-fluorophenyl)-2-hydroxyacetamide] returned an IC50 in test [2] of 101 to 250 nM.
In the case of `[2H]C([2H])([2H])c1nc(-c2ccc(NC(=O)C(O)c3cccc(C(F)(F)F)c3)cc2F)c2c(N)ncc(Cl)n12` (centres unmarked) [Example 101, N-[4-[8-amino-5-chloro-3-(trideuteriomethyl)imidazo[1,5-a]pyrazin-1-yl]-3-fluoro-phenyl]-2-hydroxy-2-[3-(trifluoromethyl)phenyl]acetamide], in test [2], the IC50 was 1 to 25 nM.
On the same count and under the same terms, with `[2H]C([2H])([2H])c1nc(-c2ccc(NC(=O)C(O)c3cccc(C(F)(F)F)c3)cc2F)c2c(N)nc(C)cn12` (centres unmarked) [Example 97, N-[4-[8-amino-6-methyl-3-(trideuteriomethyl)imidazo[1,5-a]pyrazin-1-yl]-3-fluoro-phenyl]-2-hydroxy-2-[3-(trifluoromethyl)phenyl]acetamide] the figure was 251 to 500 nM.
